Reference: the supplement of paper PMC12819154, “High-throughput peptide-centric local stability assay extends protein–ligand identification to membrane proteins, tissues and bacteria” (Nature Structural & Molecular Biology, 2025)

Legend:
Assay in all cases: pEC50 of peptide local stability change
MurD = MurD (UniProt P14900); conditions: peptide sequence: YLNGDNVR; direction: stabilized; replicate design: treated separately
How it was run: (§1)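 In four 50 µl replicates, desalted MgCl2-supplemented E. coli K-12 BW25113 lysate (1.2 mg ml^−1) received seven doses of ATP (10 µM–10 mM) or water for 30 min at 25 °C, followed by a 4 min trypsin digest at 22 °C and DIA LC–MS/MS. For each replicate, treated/control peptide ratios were fitted to a four-parameter log-logistic model. Only fits with R^2 over 0.9 in at least three replicates and a coefficient of variation of at most 0.25 were kept. The value given is the replicate mean pEC50.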

UniProt P04425 = conditions: peptide sequence: GTLIVNKPQSLR; direction: stabilized; replicate design: treated separately
How it was run: as §1

UniProt P04993 = conditions: peptide sequence: VAAAVALTR; direction: stabilized; replicate design: treated separately
How it was run: as §1

UniProt P07118 = conditions: peptide sequence: ITPAHDFNDYEVGKR; direction: stabilized; replicate design: treated separately
How it was run: as §1

UniProt P07821 = conditions: peptide sequence: LVDSLSGGER; direction: stabilized; replicate design: treated separately
How it was run: as §1

UniProt P0A9B6 = conditions: peptide sequence: SLQSLPWR; direction: stabilized; replicate design: treated separately
How it was run: as §1

UniProt P0AA41 = conditions: peptide sequence: EDKGPQPAVTHYR; direction: stabilized; replicate design: treated separately
How it was run: as §1

UniProt P0AES0 = conditions: peptide sequence: GDESLVIKK; direction: stabilized; replicate design: treated separately
How it was run: as §1

UniProt P0AFU4 = conditions: peptide sequence: LMTASWPGNVR; direction: stabilized; replicate design: treated separately
How it was run: as §1

UniProt P0C0L2 = conditions: peptide sequence: GQAHWEGDIKR; direction: stabilized; replicate design: treated separately
How it was run: as §1

UniProt P0DMC5 = conditions: peptide sequence: EVMNHITANYLPLVVR; direction: stabilized; replicate design: treated separately
How it was run: as §1

UniProt P11664 = conditions: peptide sequence: GAPETFDVAK; direction: stabilized; replicate design: treated separately
How it was run: as §1

UniProt P13458 = conditions: peptide sequence: LESTFAVK; direction: stabilized; replicate design: treated separately
How it was run: as §1

UniProt P17888 = conditions: peptide sequence: QQQALAALR; direction: stabilized; replicate design: treated separately
How it was run: as §1

UniProt P21507 = conditions: peptide sequence: DVLGSAPTGTGK; direction: stabilized; replicate design: treated separately
How it was run: as §1

UniProt P21693 = conditions: peptide sequence: DSLQHAPHIIVATPGR; direction: stabilized; replicate design: treated separately
How it was run: as §1

UniProt P22188 = conditions: peptide sequence: LWCVFGCGGDRDK; direction: stabilized; replicate design: treated separately
How it was run: as §1

UniProt P23874 = conditions: peptide sequence: ISVAGAQEK; direction: stabilized; replicate design: treated separately
How it was run: as §1

UniProt P24182 = conditions: peptide sequence: LMGDKVSAIAAMKK; direction: stabilized; replicate design: treated separately
How it was run: as §1

UniProt P27550 = conditions: peptide sequence: NTSFAPGNVSIK; direction: stabilized; replicate design: treated separately
How it was run: as §1

UniProt P31142 = conditions: peptide sequence: FNAEVDEPRPGLR; direction: stabilized; replicate design: treated separately
How it was run: as §1

UniProt P31663 = conditions: peptide sequence: NGYLTAEQR; direction: stabilized; replicate design: treated separately
How it was run: as §1

UniProt P31808 = conditions: peptide sequence: TGMTFDAQPGR; direction: stabilized; replicate design: treated separately
How it was run: as §1

UniProt P36566 = conditions: peptide sequence: TLSPDYPR; direction: stabilized; replicate design: treated separately
How it was run: as §1

UniProt P37440 = conditions: peptide sequence: CTAVVADVR; direction: stabilized; replicate design: treated separately
How it was run: as §1

UniProt P37647 = conditions: peptide sequence: GHLTASTVIQYR; direction: stabilized; replicate design: treated separately
How it was run: as §1

UniProt P39410 = conditions: peptide sequence: HIAQEMPEK; direction: stabilized; replicate design: treated separately
How it was run: as §1

UniProt P42593 = conditions: peptide sequence: TTGWIHR; direction: stabilized; replicate design: treated separately
How it was run: as §1

UniProt P76256 = conditions: peptide sequence: GPGSFTGVR; direction: stabilized; replicate design: treated separately
How it was run: as §1

UniProt P76594 = conditions: peptide sequence: YLVIQGIK; direction: stabilized; replicate design: treated separately
How it was run: as §1

UniProt Q46802 = conditions: peptide sequence: GAFTGASANGK; direction: stabilized; replicate design: treated separately
How it was run: as §1

UniProt P13458, sequence (P13458 whole entry): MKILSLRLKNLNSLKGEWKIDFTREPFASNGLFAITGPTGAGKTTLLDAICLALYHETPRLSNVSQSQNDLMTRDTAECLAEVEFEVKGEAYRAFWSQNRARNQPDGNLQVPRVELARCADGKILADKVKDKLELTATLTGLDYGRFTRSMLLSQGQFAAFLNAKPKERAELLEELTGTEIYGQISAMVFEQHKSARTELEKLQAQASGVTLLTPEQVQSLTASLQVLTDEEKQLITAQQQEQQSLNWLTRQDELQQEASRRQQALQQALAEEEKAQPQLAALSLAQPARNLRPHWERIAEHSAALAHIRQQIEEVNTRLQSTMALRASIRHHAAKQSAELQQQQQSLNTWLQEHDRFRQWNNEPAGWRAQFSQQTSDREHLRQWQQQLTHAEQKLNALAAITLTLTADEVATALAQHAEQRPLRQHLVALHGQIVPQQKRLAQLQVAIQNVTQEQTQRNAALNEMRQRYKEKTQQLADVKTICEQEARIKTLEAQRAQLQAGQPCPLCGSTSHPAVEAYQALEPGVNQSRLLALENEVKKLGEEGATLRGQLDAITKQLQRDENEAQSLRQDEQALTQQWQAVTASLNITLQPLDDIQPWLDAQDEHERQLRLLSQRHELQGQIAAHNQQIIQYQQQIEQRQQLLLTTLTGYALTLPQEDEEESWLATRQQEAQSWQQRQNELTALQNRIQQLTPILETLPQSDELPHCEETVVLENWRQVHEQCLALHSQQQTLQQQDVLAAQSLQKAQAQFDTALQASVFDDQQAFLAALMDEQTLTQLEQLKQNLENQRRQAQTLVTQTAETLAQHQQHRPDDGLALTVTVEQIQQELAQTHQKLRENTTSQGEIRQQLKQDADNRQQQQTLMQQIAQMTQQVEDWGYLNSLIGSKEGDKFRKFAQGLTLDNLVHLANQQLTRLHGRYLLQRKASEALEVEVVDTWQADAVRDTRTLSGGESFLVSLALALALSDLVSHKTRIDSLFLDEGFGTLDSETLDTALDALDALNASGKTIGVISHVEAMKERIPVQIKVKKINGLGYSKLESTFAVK
UniProt P21507, sequence (P21507 whole entry): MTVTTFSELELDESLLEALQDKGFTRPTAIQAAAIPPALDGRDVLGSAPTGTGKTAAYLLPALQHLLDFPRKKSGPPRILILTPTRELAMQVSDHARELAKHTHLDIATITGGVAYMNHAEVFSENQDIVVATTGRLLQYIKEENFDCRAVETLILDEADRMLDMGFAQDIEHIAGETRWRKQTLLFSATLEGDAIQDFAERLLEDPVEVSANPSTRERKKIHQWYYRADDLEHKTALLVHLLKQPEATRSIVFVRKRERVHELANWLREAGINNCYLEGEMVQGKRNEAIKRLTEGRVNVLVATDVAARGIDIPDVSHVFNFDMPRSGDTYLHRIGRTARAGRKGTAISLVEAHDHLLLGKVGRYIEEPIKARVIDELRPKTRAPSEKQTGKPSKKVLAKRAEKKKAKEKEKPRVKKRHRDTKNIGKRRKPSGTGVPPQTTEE
UniProt P76594, sequence (P76594 whole entry): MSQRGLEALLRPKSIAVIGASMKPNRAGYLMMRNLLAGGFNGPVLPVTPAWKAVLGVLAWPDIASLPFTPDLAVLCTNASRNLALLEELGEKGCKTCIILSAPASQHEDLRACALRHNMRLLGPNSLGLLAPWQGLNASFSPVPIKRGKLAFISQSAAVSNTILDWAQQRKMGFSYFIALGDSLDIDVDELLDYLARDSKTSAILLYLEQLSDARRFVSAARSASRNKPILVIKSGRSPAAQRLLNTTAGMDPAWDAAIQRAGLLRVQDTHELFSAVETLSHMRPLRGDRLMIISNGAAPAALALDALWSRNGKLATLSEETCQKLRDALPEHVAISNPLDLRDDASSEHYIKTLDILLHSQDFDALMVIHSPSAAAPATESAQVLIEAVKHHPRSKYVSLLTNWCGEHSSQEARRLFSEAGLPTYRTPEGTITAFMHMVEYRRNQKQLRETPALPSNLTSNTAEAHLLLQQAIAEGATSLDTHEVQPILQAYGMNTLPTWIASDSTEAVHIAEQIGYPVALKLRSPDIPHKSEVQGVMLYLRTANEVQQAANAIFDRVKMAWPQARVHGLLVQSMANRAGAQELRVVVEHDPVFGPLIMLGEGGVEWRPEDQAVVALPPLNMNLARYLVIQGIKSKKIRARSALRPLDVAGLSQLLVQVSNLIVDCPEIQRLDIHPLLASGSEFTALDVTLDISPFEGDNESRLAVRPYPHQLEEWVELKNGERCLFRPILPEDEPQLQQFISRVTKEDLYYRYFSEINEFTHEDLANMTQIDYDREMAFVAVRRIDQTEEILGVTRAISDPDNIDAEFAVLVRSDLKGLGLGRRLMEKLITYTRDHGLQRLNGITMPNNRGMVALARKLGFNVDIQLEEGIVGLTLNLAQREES
UniProt P0DMC5, sequence (P0DMC5 whole entry): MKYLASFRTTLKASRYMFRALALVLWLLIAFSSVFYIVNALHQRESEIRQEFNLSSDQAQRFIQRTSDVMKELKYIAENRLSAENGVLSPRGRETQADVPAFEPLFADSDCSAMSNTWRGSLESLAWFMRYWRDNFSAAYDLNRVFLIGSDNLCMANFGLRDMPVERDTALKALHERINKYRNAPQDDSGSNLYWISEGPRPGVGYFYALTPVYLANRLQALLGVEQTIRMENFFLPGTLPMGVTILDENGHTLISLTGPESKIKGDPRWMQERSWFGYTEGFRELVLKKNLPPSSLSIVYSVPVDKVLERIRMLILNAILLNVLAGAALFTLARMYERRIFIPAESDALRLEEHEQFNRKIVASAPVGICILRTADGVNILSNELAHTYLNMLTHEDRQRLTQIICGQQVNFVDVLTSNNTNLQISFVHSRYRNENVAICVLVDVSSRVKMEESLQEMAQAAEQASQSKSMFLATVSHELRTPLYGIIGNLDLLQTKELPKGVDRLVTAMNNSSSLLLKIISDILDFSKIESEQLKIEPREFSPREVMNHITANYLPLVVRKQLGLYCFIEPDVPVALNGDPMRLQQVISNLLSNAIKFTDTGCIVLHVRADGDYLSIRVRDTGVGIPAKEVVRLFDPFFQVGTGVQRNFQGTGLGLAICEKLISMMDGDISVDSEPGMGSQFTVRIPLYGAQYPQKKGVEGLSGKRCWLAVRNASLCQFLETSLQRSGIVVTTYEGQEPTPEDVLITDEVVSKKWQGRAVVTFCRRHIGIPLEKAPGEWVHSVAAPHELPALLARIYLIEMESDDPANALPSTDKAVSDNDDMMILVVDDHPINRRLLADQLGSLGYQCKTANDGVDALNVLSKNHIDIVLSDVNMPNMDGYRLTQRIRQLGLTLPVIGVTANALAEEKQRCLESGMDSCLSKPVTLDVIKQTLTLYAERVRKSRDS
UniProt P04993, sequence (P04993 whole entry): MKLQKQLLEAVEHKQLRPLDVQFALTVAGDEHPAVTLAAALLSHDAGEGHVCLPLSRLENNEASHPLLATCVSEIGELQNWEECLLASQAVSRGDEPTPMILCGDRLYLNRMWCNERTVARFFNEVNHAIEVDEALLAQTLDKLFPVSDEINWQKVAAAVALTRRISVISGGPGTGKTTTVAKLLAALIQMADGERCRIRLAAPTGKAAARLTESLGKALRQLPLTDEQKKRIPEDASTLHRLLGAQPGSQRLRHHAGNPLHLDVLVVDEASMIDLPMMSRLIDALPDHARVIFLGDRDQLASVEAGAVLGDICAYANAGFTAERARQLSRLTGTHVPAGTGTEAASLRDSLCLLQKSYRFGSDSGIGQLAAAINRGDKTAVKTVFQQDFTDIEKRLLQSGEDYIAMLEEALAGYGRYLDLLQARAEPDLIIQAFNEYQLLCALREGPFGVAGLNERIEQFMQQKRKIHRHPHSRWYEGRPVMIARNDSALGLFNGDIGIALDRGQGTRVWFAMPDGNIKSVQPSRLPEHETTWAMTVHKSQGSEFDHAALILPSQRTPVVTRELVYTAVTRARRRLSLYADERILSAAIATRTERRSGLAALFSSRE
UniProt P27550, sequence (P27550 whole entry): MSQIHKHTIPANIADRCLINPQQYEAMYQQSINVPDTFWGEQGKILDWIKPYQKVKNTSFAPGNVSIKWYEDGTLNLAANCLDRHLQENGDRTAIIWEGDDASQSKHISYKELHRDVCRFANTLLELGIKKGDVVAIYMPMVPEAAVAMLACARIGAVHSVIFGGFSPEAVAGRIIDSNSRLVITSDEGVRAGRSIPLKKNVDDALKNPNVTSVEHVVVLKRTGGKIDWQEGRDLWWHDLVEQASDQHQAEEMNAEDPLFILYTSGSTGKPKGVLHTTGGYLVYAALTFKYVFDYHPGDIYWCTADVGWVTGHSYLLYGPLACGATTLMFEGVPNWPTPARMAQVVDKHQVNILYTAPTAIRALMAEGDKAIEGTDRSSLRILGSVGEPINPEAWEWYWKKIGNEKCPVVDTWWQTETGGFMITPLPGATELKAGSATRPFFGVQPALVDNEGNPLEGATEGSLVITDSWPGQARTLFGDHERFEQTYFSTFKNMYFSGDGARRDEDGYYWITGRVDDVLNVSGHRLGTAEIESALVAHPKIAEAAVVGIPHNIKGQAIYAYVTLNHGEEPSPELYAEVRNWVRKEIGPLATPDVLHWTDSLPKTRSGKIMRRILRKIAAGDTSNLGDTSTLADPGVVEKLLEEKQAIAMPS
MurD, sequence (P14900 whole entry): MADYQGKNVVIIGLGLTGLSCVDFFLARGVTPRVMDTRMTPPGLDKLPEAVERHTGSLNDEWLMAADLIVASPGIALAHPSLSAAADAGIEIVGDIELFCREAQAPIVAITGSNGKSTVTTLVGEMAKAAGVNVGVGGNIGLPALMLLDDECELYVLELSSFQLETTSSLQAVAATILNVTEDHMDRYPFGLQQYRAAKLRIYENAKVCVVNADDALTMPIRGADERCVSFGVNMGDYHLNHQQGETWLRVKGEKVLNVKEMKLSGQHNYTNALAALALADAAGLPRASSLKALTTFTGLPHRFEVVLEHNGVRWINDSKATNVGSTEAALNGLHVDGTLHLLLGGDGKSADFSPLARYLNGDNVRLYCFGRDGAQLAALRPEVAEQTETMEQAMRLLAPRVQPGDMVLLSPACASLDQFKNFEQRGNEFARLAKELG

Nc1ncnc2c1ncn2[C@@H]1O[C@H](COP(=O)(O)OP(=O)(O)OP(=O)(O)O)[C@@H](O)[C@H]1O [adenosine 5'-triphosphate]
pEC50 of peptide local stability change (MurD): 3.82 | pEC50 of peptide local stability change (UniProt P04425): 3.85 | pEC50 of peptide local stability change (UniProt P04993): 2.84 | pEC50 of peptide local stability change (UniProt P07118): 3.75 | pEC50 of peptide local stability change (UniProt P07821): 3.1 | pEC50 of peptide local stability change (UniProt P0A9B6): 2.62 | pEC50 of peptide local stability change (UniProt P0AA41): 2.34 | pEC50 of peptide local stability change (UniProt P0AES0): 3.95 | pEC50 of peptide local stability change (UniProt P0AFU4): 3.39 | pEC50 of peptide local stability change (UniProt P0C0L2): 3.96 | pEC50 of peptide local stability change (UniProt P0DMC5): 2.58 | pEC50 of peptide local stability change (UniProt P11664): 3.03 | pEC50 of peptide local stability change (UniProt P13458): 2.9 | pEC50 of peptide local stability change (UniProt P17888): 3.81 | pEC50 of peptide local stability change (UniProt P21507): 4.35 | pEC50 of peptide local stability change (UniProt P21693): 3.65 | pEC50 of peptide local stability change (UniProt P22188): 3.89 | pEC50 of peptide local stability change (UniProt P23874): 3.78 | pEC50 of peptide local stability change (UniProt P24182): 3.89 | pEC50 of peptide local stability change (UniProt P27550): 3.34 | pEC50 of peptide local stability change (UniProt P31142): 3.24 | pEC50 of peptide local stability change (UniProt P31663): 4.25 | pEC50 of peptide local stability change (UniProt P31808): 2.09 | pEC50 of peptide local stability change (UniProt P36566): 2.46 | pEC50 of peptide local stability change (UniProt P37440): 2.72 | pEC50 of peptide local stability change (UniProt P37647): 3.1 | pEC50 of peptide local stability change (UniProt P39410): 3.92 | pEC50 of peptide local stability change (UniProt P42593): 2.95 | pEC50 of peptide local stability change (UniProt P76256): 3.97 | pEC50 of peptide local stability change (UniProt P76594): 2.33 | pEC50 of peptide local stability change (UniProt Q46802): 3.29
